From patent publication US5158950A, “1,3-dithiol-2-ylidene derivatives and process for the preparation thereof” (Yuhan Corporation, Ltd., priority 1987, dated 1992)

Columns and labels:
[1] = test system: serum ALT activity induced by CCl4; assay: Protective effect against acute hepatic damage induced by carbon tetrachloride (serum ALT); format: in vivo; details: Mus musculus; mice, 50 mg/kg oral, 6 h before CCl4 (50 ul/kg oral); ALT 24 h after CCl4; read-out: Inhibitory (%): protective effect against increase of serum ALT activity induced by CCl4
Method: Principle; Carbon tetrachloride (CCl4) is a well-known hepatotoxic agent, thus widely used to produce experimental animal models for screening the potential drugs acting upon hepatic diseases. In this experiment test compounds were administered to mice prior to treatment with CCl4. 24 Hours after the CCl4 treatment, the animals were sacrificed and serum alanine aminotransferase (ALT) levels were determined. The hepatoprotective effect of a test compound was evaluated by the suppressive action against the increase of serum ALT induced by CCl4.
Method; The experimental animals were divided into normal, CCl4 treated and test compound treated groups. Each group consisted of 8 mice with body weight of 20-25 grams. The test compounds were suspended in 0.2% sodium carboxy methyl cellulose (CMC-Na) solution and administered orally at the dose of 50 mg/125 ml/kg body weight. Only the vehicle, 0.2% CMC-Na solution, was administered to the normal and to the CCl4 treated group instead of the test compound suspension. 6 Hours after the drug administration, the CCl4 solution in olive oil was administered orally to the CCl4 treated- and the test compound treated group at the dose of 50 ul/25 ml olive oil/kg body weight. The normal group was administered olive oil only at the same dose. 24 Hours after the CCl4 administration, blood samples were collected from the orbital sinus of the animals and the sera were obtained by centrifugation The serum ALT activities were monitored using an automatic blood analyzer (Gilford, SBA 300). The hepatoprotective effect of the test compounds was expressed by the suppressive percentage against the increase of serum ALT level induced by CCl4 calculated by the following formula; [formula]

[2] = test system: serum ALT level after CCl4 treatment; assay: Determination of 50% inhibitory dose (ID50) against CCl4-induced serum ALT increase; format: in vivo; details: Mus musculus; mice, oral, 6 h before CCl4; estimated from dose-response curve at 50, 25, 12.5, 6.25 mg/kg
Method: Principle The various doses of test compounds were administered to mice, followed by the treatment with CCl4 after 6 hours. 24 Hours after the CCl4 treatment, the serum ALT level of the animals were determined. The hepatoprotective effect of the test compounds and the doses were plotted to form dose-response curves. The ID50 doses of the test compounds were estimated from the dose-response curves.
Method; The experimental animals were divided into normal, CCl4 treated and test compound treated groups. Each group consisted of 8 mice with body weight of 20-25 grams. The test compounds were suspended in 0.2% CMC-Na solution and administered orally at a dose of 50 mg, 25 mg, 12.5 mg, or 6.25 mg/125 ml/kg body weight. Only the vehicle, 0.2% CMC-Na solution, was administered to the normal and to the CCl4 treated group instead of the test compound suspension. 6 Hours after the drug administration, the CCl4 solution in olive oil was administered orally to the CCl4 treated and the test compound treated groups at the dose of 50 ul/25 ml olive oil/kg body weight. The normal group was administered olive oil only at the same dose. 24 Hours after the CCl4 administration, blood samples were collected from the orbital sinus of the animals and the sera were obtained by centrifugation. The serum ALT activities were monitored and the hepatoprotective effect of the test compounds were calculated by the same method as described in experiment 1. The inhibitory percentages were plotted against the corresponding doses of the test compounds to make dose-response curves. The 50% inhibitory dose of test compound was estimated from the dose-response curve.

[3] = Acute oral toxicity, median lethal dose (LD50); details: mouse, in vivo, male ICR mice, deaths counted for 14 days
Method: Each test compound was suspended in a 0.2% CMC-Na solution in various concentrations to make test suspension. The test suspensions were administered orally to male ICR mice (10 in each group) at various doses. The number of dead mice was counted for 14 days and the value of mediam lethal dose (LD50, g/kg) was calculated by the Hitchifield-Wilcoxon method.

SMILES	inhibition in vivo at 50 mg/kg [1] [%]	ED50 [2] [mg/kg]	LD50 at 336 h [3] [mg/kg]
CC(C)OC(=O)C(C(=O)Nc1[nH]cnc1C(N)=O)=C1SC=CS1 [18(o), Isopropy 2-(1,3-dithiol-2-ylidene)-2-[N-(4-carboxamido-5-imidazolyl)carbamoyl]acetate]	98.7	25	> 5000
CC(C)OC(=O)C(C(=O)Nc1nnn[nH]1)=C1SC=CS1 [20(b), Isopropyl 2-(1,3-dithiol-2-ylidene)-2-[N-(5-tetrazolyl)-carbamoyl]acetate]	99.9	10	5000
Cc1ccnc(NC(=O)C(C(=O)OC(C)C)=C2SC=CS2)c1 [18(e), Isopropyl 2-(1,3-dithiol-2-ylidene)-2-[N-(4-methyl-2-pyridyl)carbamoyl]acetate]	99.7	20	> 5000
CCOC(=O)C(C(=O)Nc1ccccc1)=C1SC=CS1 [17(c), Ethyl 2-(1,3-dithiol-2-ylidene)-2-(N-phenylcarbamoyl)acetate]	100	8	> 5000
Cc1csc(NC(=O)C(C(=O)OC(C)C)=C2SC=CS2)n1 [19(d), Isopropyl 2-(1,3-dithiol-2-ylidene)-2-[N-(4-methyl-2-thiazolyl)carbamoyl]acetate]	97.2	< 6.25	5000
CC(C)OC(=O)C(C(=O)Nc1ccc(Cl)cn1)=C1SC=CS1 [18(g)]	77.3	25	> 5000
CC(C)OC(=O)C(C(=O)Nc1nncs1)=C1SC=CS1 [18(i), Isopropyl 2-(1,3-dithiol-2-ylidene)-2-[N-(1,3,4-thiadiazol-2-yl)carbamoyl]acetate]	100	< 6.25	> 5000
Cc1cc(NC(=O)C(C(=O)OC(C)C)=C2SC=CS2)no1 [18(h), Isopropyl 2-(1,3-dithiol-2-ylidene)-2-[N-(5-methyl-3-isoxazolyl)carbamoyl]acetate]	100	9	> 5000
CC(C)OC(=O)C(C(=O)Nc1ccncc1)=C1SC=CS1 [18(d), Isopropyl 2-(1,3-dithiol-2-ylidene)-2-[N-(4-pyridyl)carbamoyl]acetate]	99.7	< 6.25	1100
CC(C)OC(=O)C(C(=O)NC1CCSC1=O)=C1SC=CS1 (stereo not drawn) [14(a)]	99.2	10	> 5000
Cc1nnc(NC(=O)C(C(=O)OC(C)C)=C2SC=CS2)s1 [18(j)]	100	10	> 5000
CC(C)OC(=O)C(C(=O)Nc1ccccn1)=C1SC=CS1 [18(a), Isopropyl 2-(1,3-dithiol-2-ylidene)-2-[N-(2-pyridyl)carbamoyl]acetate]	99.8	< 6.25	4200
CCOC(=O)C(C(=O)NC1CCSC1=O)=C1SC=CS1 (stereo not drawn) [14(b), Ethyl 2-(1,3-dithiol-2-ylidene)-2-[N-(tetrahydrothiophen-2-on-3-yl)carbamoyl]acetate]	88.7	25	> 4000
CCC(C)OC(=O)C(C(=O)Nc1ccccn1)=C1SC=CS1 (stereo not drawn) [18(b), sec-Butyl 2-(1,3-dithiol-2-ylidene)-2-[N-(2-pyridyl)carbamoyl]acetate]	100	7	5000
